From article PMC6010013, “Synthesis, physiochemical property and antimicrobial activity of novel quaternary ammonium salts” (Journal of Enzyme Inhibition and Medicinal Chemistry, 2017)
Like-named read-outs stand apart in the source and are kept apart here.

Columns and labels:
[1] = Haemolysis assay; format: cell-based; conditions: human red blood cells (erythrocyte suspension), 1 h at 37 ℃, read-out: Haemolysis rate; for hemolysis at 1 h, 12.5 μg/mL: 12.50 μg/mL
Procedure: (§1) The surfactant may be absorbed and penetrate to the cell membrane, where it makes osmotic phenomena by altering the permeability of membrane, which in turn causes the cellular lysis. Haemolysis assay gives quantitative estimation about haemoglobin release when red blood cells are treated with QASs. Haemolytic assay of QASs at different concentration was carried out in Table 4. […] For 5a-b, 6a-b, 10a-c, 13a-b, and 16a-d, their safe concentration can more than 100 μg/mL. Compared with BZK and CA, all QASs were safe to be used when they circulated into the blood in low concentration. […]
(§2) The human blood from healthy individual was collected in a tube containing heparin, and the blood was centrifuged at 1500 rpm for 3 min. The […] (Erythrocyte) was collected and plasma was discarded and further washed five times with sterile normal saline solution. Then the cells were diluted to 0.2% of their volume with normal saline solution. 2 mL of the diluted red blood cells suspension was mixed with (a) 2 mL of normal salinesolution as a negative control; (b) 2 mL of distilled water as a positive control; (c) 2 mL of QAS solution which were dispersed into normal saline solution at the different concentrations ranging from 3.125 to 400 μg/mL. Then the mixtures were shaken well and incubated for 1 h at 37 ℃. Finally, the mixtures were centrifuged for 5min at 2000 r/min and the absorbances of supernatant at 540 nm was measured by a microplate reader (Multiskan MK3-Thermo Labsystems, USA). The hemolysis ratio was calculated as follows: The hemolysis ratio(%) = (OD Sample−OD Negative)/(OD Positive −OD Negative) ×100%. The hemolysis evaluation of QASs was performed in triplicate and results were expressed as the mean ± SD.

[2] = tested on: β-H-tococcus; assay: MBC, agar plating of dilutions without growth; format: cell-based; conditions: 99.9% bactericidal; for MBC: read-out: Minimal bactericidal concentration (MBC)
Source text: In this paper, antimicrobial activities of 24 QASs were detected by quantitative tests. […] Benzalkonium chloride (BZK) and chlorhexidine acetate (CA) was selected as positive controls. Representative compound POT-C12QAS (2) which synthesised and evaluated in previous work was also taken as a reference compound in MIC, MBC and cytotoxicity tests. […]
agriculture were used as target pathogens in this study, including three strains of Gram-positive bacteria (S. Aureus, α-H-tococcus, β-H-tococcus), three strains of Gram-negative bacteria (E. coli, P. aeruginosa, Proteus vulgaris) and four strains of fungi (Canidia albicans, Cytospora mandshurica, Physalospora piricola, Aspergillus niger). The antimicrobial tests were assayed, according to standard CLSI methods for antimicrobial dilution susceptibility tests to measure the minimum inhibitory concentration (MIC) and minimum bactericidal concentration (MBC)2.
A broth tube dilution method was followed to determine the MIC values for all the screened compounds against the micro-organisms, and for comparison benzalkonium chloride (BZK) and chlorhexidine acetate (CA) was used as a reference. For sample preparation, each of the test compounds and reference were dissolved in DMSO or sterile water at a concentration of 1600 μg/mL, and further dilutions of the compounds and reference in culture medium MHB (Muller-Hinton Broth) were prepared at the required quantities of 400, 200, 100 etc., down to 0.39 μg/mL. Bacterial strains and fungal strains were maintained on MHA (Muller-Hinton Agar) medium at 37℃ or 28 ℃ for 12 h or 72h, respectively. The microbial inocula were prepared by suspension in 10 mL of culture medium for colonies from culture on MHA. The cell density of each inoculum was adjusted in culture medium of a 0.5 McFarland standard (1-2×10^8 CFU/mL). The final amount applied was 10^5 CFU/mL for bacteria and fungi. The microbial inocula were added to the twofold diluted samples. One growth control tube was prepared […] the addition of the compound and one blank tube was prepared without the addition of the microorganism. MIC values were read after incubation at 37℃ or 28 ℃ for bacterial and fungal strains, respectively. […]
was placed on agar plates in triplicate, and incubated at 37℃ or 28 ℃ for 12 h or 72h. The number of colonies on each plate was read, and the MBC was determined as the lowest concentration that achieved a 99.9% bactericidal in the agar plate.

[3] = tested on: red blood cells; assay: Haemolysis assay; format: cell-based; conditions: human red blood cells, 1 h at 37 ℃
Procedure: as §1, §2

[4] = tested on: human immortalised epidermal (HaCat) cell line; assay: Cytotoxicity, MTT assay; format: cell-based
Procedure: (§3) These six series of antimicrobial compounds may be applied to daily or clinical disinfectants for unbroken skin and trauma, or agricultural fungicides alternatively. Thus, their cytotoxicity for skin or body tissues are crucial. In this study, the cytotoxicity of target compounds was evaluated for human immortalised epidermal (HaCat) and human normal liver (LO2) cell line using MTT assay. […] The IC50 values of 5a, 6a, 10a, 16a, 16 b were about more than 50 μg/mL for LO2 and HaCat.
(§4) Cytotoxicity Testing with MTT Method
(§5) Human immortalized epidermal cells (HaCat) line were cultured in Dulbecco’s modified Eagle’s medium containing 10% fetal bovine serum, 1% penicillin, and 1% streptomycin at 37°C in a 5% CO2/95% air incubator MCO-15AC (SANYO). Human normal liver cells (LO2) line were cultured in Roswell Park Memorial Institute medium containing 10% fetal bovine serum, 1% penicillin, and 1% streptomycin at 37°C in a 5% CO2/95% air incubator MCO-15AC (SANYO). HaCat or LO2 cells in 96-well plate were adjusted to 1.0 × 10^5 cells mL-1 and cells were passed and cell supernatant was pour out before plating on glass slide at 37°C, 5% CO2 for 24 h. Cells were pretreated with 100 μL QAS for 24 h and cell supernatant with QAS was pour out and washed with PBS buffer system. Then, the cells were treated with the MTT solution (MTT, 3-(4,5-dimethythiazol-2-yl)-2,5-diphenyl-tetrazolium bromide, 20 μL, 5 mg/mL) for 4 h. The dark blue formazan crystal formed in the intact cells was solubilized with dimethyl sulfoxide, and absorbance at 570 nm was measured with a microplate reader (Multiskan MK3-Thermo Labsystems, USA). The results were expressed as percentage of the control value from the normal cells without treatments of QAS. […]

[5] = tested on: human normal liver (LO2) cell line; assay: Cytotoxicity, MTT assay; format: cell-based
Procedure: as §3, §4, §5

Row | Molecule | hemolysis at 1 h, 6.25 μg/mL [1] | hemolysis at 1 h, 12.5 μg/mL [1] | hemolysis at 1 h, 25 μg/mL [1] | hemolysis at 1 h, 50 μg/mL [1] | hemolysis at 1 h, 100 μg/mL [1] | hemolysis at 1 h, 200 μg/mL [1] | hemolysis at 1 h, 400 μg/mL [1] | MBC [2] | also measured
1 | C[N+](CCO)(CCO)CCCCCCCCCCSc1nnc(-c2ccc(F)cc2)o1 [Compound 5c] | 0.43 ± 0.16% | 0.75 ± 0.19% | 2.31 ± 0.67% | 4.89 ± 0.53% | 33.1 ± 4.87% | 52.3 ± 6.34% | 67.2 ± 5.89% | 12.5 µg/mL | 
2 | C[N+](CCO)(CCO)CCCCCCCCCCCCSc1nnc(-c2ccc(C(F)(F)F)cc2)o1.[Br-] [Compound 6d] | 0.64 ± 0.19% | 1.05 ± 0.28% | 2.02 ± 3.45% | 4.85 ± 4.65% | 36.4 ± 6.35% | 85.6 ± 4.86% | 92.5 ± 3.87% | 3.12 µg/mL | melting point: 88 to 90 °C
3 | Benzalkonium chloride [BZK, reference compound] |  |  |  |  |  |  |  |  | Haemolysis rate ([3]; 6.25 μg/mL): 1.51 ± 0.31%; Haemolysis rate ([3]; 12.50 μg/mL): 1.39 ± 0.38%; Haemolysis rate ([3]; 25.00 μg/mL): 12.69 ± 1.87%; Haemolysis rate ([3]; 50.00 μg/mL): 63.85 ± 4.56%; Haemolysis rate ([3]; 100.00 μg/mL): 92.36 ± 3.78%; Haemolysis rate ([3]; 200.00 μg/mL): 96.28 ± 2.97%; Haemolysis rate ([3]; 400.00 μg/mL): 98.53 ± 1.23%; Cytotoxicity IC50 [4]: 3.19 ± 0.26 µg/mL; Cytotoxicity IC50 [5]: 2.12 ± 0.43 µg/mL; Minimal bactericidal concentration (MBC) [2]: 1.56 µg/mL
4 | [H]/N=C(\N/C(=N/[H])NCCCCCCNC(=N)NC(=N)Nc1ccc(Cl)cc1)Nc1ccc(Cl)cc1 [CA, chlorhexidine acetate, reference compound] | 0.86 ± 0.28% | 2.51 ± 0.87% | 5.29 ± 1.22% | 37 ± 3.78% | 62.2 ± 3.53% | 86 ± 3.82% | 95.7 ± 3.54% | 3.12 µg/mL | 
5 | C[N+](CCO)(CCO)CCCCCCSc1nnc(-c2ccc(F)cc2)o1 [Compound 5a] | 0.21 ± 0.03% | 0.53 ± 0.15% | 1.37 ± 0.87% | 1.54 ± 0.96% | 3.25 ± 1.23% | 6.21 ± 3.21% | 35.6 ± 4.87% | 25 µg/mL | 
6 | C[N+](CCO)(CCO)CCCCCCCCCCCCSc1nnc(-c2ccccc2)o1 [Compound 2, reference compound] | 0.18 ± 0.05% | 0.42 ± 0.13% | 0.93 ± 0.41% | 4.11 ± 0.89% | 17.1 ± 2.34% | 82.8 ± 3.18% | 90.6 ± 4.23% | 6.25 µg/mL | 
7 | C[N+](CCO)(CCO)CCCCCCCCCCCCSc1nnc(-c2ccc(F)cc2)o1 [Compound 5d] | 0.49 ± 0.12% | 0.87 ± 0.27% | 2.43 ± 0.82% | 4.81 ± 0.74% | 32.4 ± 6.78% | 66.7 ± 5.21% | 66.9 ± 4.12% | 6.25 µg/mL | 
8 | C[N+](CCO)(CCO)CCCCCCCCSc1nnc(-c2ccc(C(F)(F)F)cc2)o1 [Compound 6b] | 0.18 ± 0.06% | 0.51 ± 0.08% | 0.43 ± 0.1% | 0.7 ± 0.18% | 4.61 ± 0.31% | 26.2 ± 3.68% | 80.4 ± 4.98% | 12.5 µg/mL | Cytotoxicity IC50 ([4]; HaCat cells, MTT, 24 h): 32.57 ± 2.69 µg/mL; Cytotoxicity IC50 ([5]; LO2 cells, MTT, 24 h): 38.72 ± 2.92 µg/mL
9 | C[N+](CCO)(CCO)CCCCCCCCCCCCSc1nc2ccccc2s1 [Compound 13d] | 0.56 ± 0.13% | 1.5 ± 0.72% | 3.98 ± 1.03% | 11.2 ± 2.86% | 48.6 ± 3.54% | 65.2 ± 3.91% | 83.7 ± 4.12% | ~3.12 µg/mL | 
10 | C[N+](CCO)(CCO)CCCCCCCCCCSc1nnc(-c2ccc(C(F)(F)F)cc2)o1.[Br-] [Compound 6c] | 0.57 ± 0.15% | 0.42 ± 0.13% | 0.67 ± 0.13% | 3.56 ± 1.32% | 35.8 ± 5.1% | 82.5 ± 6.12% | 89.4 ± 4.35% | 6.25 µg/mL | melting point: 102 to 103 °C
11 | C[N+](CCO)(CCO)CCCCCCSc1nnc(-c2ccc(C(F)(F)F)cc2)o1 [Compound 6a] | 0.15 ± 0.08% | 0.35 ± 0.17% | 0.51 ± 0.19% | 0.99 ± 0.12% | 3.38 ± 1.23% | 7.09 ± 2.89% | 41 ± 5.32% | 25 µg/mL | 
